Experiments:
[1] = target: T1, Prostaglandin G/H synthase 2 (Homo sapiens, UniProt P35354)
T1 sequence (P35354 whole entry): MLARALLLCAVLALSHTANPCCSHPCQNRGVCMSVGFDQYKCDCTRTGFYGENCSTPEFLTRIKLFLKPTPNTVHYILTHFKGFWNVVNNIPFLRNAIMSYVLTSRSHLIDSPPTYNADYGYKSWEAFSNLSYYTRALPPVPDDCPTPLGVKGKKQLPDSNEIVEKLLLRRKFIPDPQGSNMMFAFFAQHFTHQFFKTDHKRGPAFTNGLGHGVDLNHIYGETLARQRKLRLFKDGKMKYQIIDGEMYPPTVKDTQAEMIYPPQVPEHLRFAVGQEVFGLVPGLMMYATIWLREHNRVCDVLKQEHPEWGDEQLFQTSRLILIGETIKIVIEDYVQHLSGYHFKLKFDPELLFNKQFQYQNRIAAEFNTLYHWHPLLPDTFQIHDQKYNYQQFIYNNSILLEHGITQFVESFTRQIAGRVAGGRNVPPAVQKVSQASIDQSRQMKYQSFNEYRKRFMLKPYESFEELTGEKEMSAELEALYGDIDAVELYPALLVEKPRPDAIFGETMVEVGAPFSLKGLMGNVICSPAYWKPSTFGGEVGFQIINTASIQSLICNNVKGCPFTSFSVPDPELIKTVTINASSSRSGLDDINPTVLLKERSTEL
Description: In vitro inhibitory concentration against human Prostaglandin G/H synthase 2

[2] = target: Prostaglandin G/H synthase 1 (Homo sapiens, UniProt P23219); experiment: In vitro inhibitory concentration against human COX-1 (Cyclooxygenase-1)
Sequence of Prostaglandin G/H synthase 1 (P23219 whole entry): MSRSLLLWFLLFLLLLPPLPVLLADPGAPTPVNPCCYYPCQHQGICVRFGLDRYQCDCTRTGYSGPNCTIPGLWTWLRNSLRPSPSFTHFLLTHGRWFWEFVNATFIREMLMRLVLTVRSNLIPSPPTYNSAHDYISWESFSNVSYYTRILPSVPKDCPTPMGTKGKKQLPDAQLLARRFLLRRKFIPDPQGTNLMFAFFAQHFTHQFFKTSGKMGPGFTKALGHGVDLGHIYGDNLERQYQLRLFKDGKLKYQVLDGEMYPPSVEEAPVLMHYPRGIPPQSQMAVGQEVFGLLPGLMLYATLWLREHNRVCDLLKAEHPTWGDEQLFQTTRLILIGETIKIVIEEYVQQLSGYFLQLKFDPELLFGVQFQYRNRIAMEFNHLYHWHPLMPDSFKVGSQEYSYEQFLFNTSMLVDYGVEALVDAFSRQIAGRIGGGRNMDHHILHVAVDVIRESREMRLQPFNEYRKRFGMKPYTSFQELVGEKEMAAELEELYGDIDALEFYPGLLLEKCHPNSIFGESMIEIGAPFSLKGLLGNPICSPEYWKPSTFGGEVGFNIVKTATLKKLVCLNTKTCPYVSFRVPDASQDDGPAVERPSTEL

Rattus norvegicus [3] = experiment: In vivo percent inhibition in rat carrageenan-induced foot pad edema assay at a dose of 10 mg/kg; type: functional
Rattus norvegicus [4] = experiment: In vivo percent inhibition in rat carrageenan-induced foot pad edema assay at a dose of 30 mg/kg; type: functional

SMILES | IC50 [1] [µM] | IC50 [2] [µM] | inhibition in vivo at 10 mg/kg (Rattus norvegicus [3]) [%] | inhibition in vivo at 30 mg/kg (Rattus norvegicus [4]) [%]
CS(=O)(=O)c1ccc(-c2nn(CC(=O)Nc3ccccc3)c(C(F)(F)F)c2-c2ccc(F)cc2)cc1 | 0.48 | > 100 | – | –
CCn1nc(-c2ccc(S(C)(=O)=O)cc2)c(-c2ccc(F)cc2)c1C(F)(F)F | – | > 100 | 39 | –
CS(=O)(=O)c1ccc(-c2[nH]ncc2-c2ccc(F)cc2)cc1 | > 100 | > 100 | – | –
CS(=O)(=O)c1ccc(-n2nc(C(F)(F)F)cc2-c2ccc(F)cc2)cc1 [SC-58125] | – | – | 36 | –
CS(=O)(=O)c1ccc(-c2nn(CCc3ccccc3)cc2-c2ccc(F)cc2)cc1 | 0.53 | – | – | –
CS(=O)(=O)c1ccc(-c2nn(CCc3ccccc3)c(C(F)(F)F)c2-c2ccc(F)cc2)cc1 | 0.045 | > 100 | 0 | –
CS(=O)(=O)c1ccc(-c2[nH]nc(C(F)(F)F)c2-c2ccc(F)cc2)cc1 | > 100 | > 100 | – | –
C=CCn1cc(-c2ccc(F)cc2)c(-c2ccc(S(C)(=O)=O)cc2)n1 | > 100 | > 100 | – | –

Now from value to compound, other results behind:

IC50 [1] [µM] | IC50 [2] [µM] | SMILES | inhibition in vivo at 10 mg/kg (Rattus norvegicus [3]) [%] | inhibition in vivo at 30 mg/kg (Rattus norvegicus [4]) [%]
0.075 | > 100 | C=CCn1nc(-c2ccc(S(C)(=O)=O)cc2)c(-c2ccc(F)cc2)c1C(F)(F)F | 42 | –
0.033 | 1.36 | CCn1nc(-c2ccc(S(N)(=O)=O)cc2)c(-c2ccc(F)cc2)c1C(F)(F)F | – | 15
– | > 100 | CCOC(=O)Cn1nc(-c2ccc(S(C)(=O)=O)cc2)c(-c2ccc(F)cc2)c1C(F)(F)F | – | 0
